Source: PMC11986975, “A Cdk5 inhibitor restores cognitive function and alleviates type 2 diabetes in mice” (iScience, 2025)

Tests used:
[1] = test system: neurodegenerative markers in hippocampus; assay: Western blot of hippocampal proteins (Cdk5, p35/p25, NF-H, p-NF-H, NF-L, tau, p-tau) in treated HFD mice; type: in vivo; conditions: i.p.
Protocol: For tissue lysate preparation the mice were sacrificed following the Institution’s ethical guidelines. The hippocampus was isolated from the rest of the brain and treated in a tissue lysis solution with a protease and phosphatase inhibitor cocktail. Western blotting was performed to study the expression patterns of the protein of interest. Each well of a polyacrylamide gel was loaded with an identical amount of protein lysate (40–50 μg), which was then transferred to the nitrocellulose membrane. In 1X PBS with 0.1% (v/v) Tween 20, the main antibodies were diluted.

Cdk2/CylA2 = assay: Specificity kinase assay, Cdk2 with cyclin A2; type: biochemical; conditions: inhibitor 0-100 nM
Text: (§1) To assess the specificity of inhibitors BLINK11 and BLINK15 against CDK5, we investigated their effects on different Cdks, i.e., Cdk1, Cdk2, and Cdk9 that share structural homology with CDK5. […] However, these IC50 values were higher than those observed for CDK5/p35 and CDK5/p25. […] Overall, BLINK11 and BLINK15 can selectively target CDK5 at lower concentrations. […]
(§2) IC50 of all the kinases for both BLINK11 and BLINK15 inhibitors.

CDK5 = test system: T1, CDK5; assay: Cdk5 kinase activity of Cdk5 pulled down from hippocampus lysate of treated HFD mice; type: in vivo; conditions: i.p., 20 days, in the presence of p25
T1 construct: Cdk5 kinase activity using pulled down Cdk5 from the hippocampus lysate of the mouse groups; from tissue; host or cells: hippocampus / brain lysate of male C57BL/6J mice on high-fat diet
Protocol: Cdk5 was immunoprecipitated from N2A cells and brain lysate using a Cdk5 antibody. Kinase assays were performed using a Promega ADP-Glo Kinase Assay kit with Cdk5/p35 and Cdk5/p25 complexes. Histone was used as a substrate to test kinase activity Cdk5 was immunoprecipitated from N2a cells overexpressing Cdk5/p35 and Cdk5/p25, following treatment with BLINK11 and BLINK15 inhibitors at concentrations of 50nM and 100nM, using a Cdk5 antibody. A kinase assay was subsequently conducted as described in Bankston et al.[53] Additionally, Cdk5 was precipitated from mouse brain lysates treated with BLINK11 and BLINK15 inhibitors. The immunoprecipitation was performed with 100 μL of A/G beads, 2 μg of Cdk5 antibody, and 150 μg of cell and brain lysates, with elution carried out using a urea elution buffer. The kinase assay was conducted using the ADP-Glo Kinase Assay Kit (Promega) with immunoprecipitated Cdk5, ATP, and 1–2 μg of histone as the substrate.

Cdk1/CylY = assay: Specificity kinase assay, Cdk1 with cyclin Y; type: biochemical; conditions: inhibitor 0-100 nM; read-out: IC50, Cdk1 with activator cyclin Y
Chain of Cdk1/CylY (P06493 whole entry): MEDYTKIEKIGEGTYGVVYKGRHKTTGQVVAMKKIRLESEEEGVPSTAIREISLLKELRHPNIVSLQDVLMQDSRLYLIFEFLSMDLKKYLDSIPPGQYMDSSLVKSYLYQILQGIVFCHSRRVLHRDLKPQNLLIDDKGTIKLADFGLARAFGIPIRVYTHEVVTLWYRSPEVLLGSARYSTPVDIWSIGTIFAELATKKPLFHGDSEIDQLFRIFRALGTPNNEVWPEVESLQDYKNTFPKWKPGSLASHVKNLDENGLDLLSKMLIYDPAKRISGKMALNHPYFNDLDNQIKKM
Chain of Cdk1/CylY (Q8ND76 2-341 partner): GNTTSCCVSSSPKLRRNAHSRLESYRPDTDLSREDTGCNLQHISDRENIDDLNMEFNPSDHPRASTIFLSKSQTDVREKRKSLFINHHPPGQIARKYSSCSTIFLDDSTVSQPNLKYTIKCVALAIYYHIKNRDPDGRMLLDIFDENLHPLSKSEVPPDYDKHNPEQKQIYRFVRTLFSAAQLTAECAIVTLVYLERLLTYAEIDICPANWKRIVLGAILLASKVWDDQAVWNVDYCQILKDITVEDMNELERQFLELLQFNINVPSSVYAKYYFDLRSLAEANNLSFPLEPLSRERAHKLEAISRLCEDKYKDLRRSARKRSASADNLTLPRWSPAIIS
Text: as §1, §2

Cdk9/CylT = assay: Specificity kinase assay, Cdk9 with cyclin T; type: biochemical; conditions: inhibitor 0-100 nM
Text: To assess the specificity of inhibitors BLINK11 and BLINK15 against CDK5, we investigated their effects on different Cdks, i.e., Cdk1, Cdk2, and Cdk9 that share structural homology with CDK5. […] However, these IC50 values were higher than those observed for CDK5/p35 and CDK5/p25. […] Overall, BLINK11 and BLINK15 can selectively target CDK5 at lower concentrations.
ligands are illustrated with red lines. The RMSD plots for the interactions of BLINK11 and
Figure S3: BBB Permeability assay and Evaluation of non-specific kinase inhibition by
BLINK11 and BLINK15 (A-B) PAMPA assay results of BLINK11 and BLINK15 compound.
as §2
(1 picture or pasted object on this page, not shown here)

HFD-fed mice [2] = assay: Grip strength test in HFD mice; type: in vivo; conditions: i.p., 40 mg/kg/day, 20 days
Protocol: A grip strength meter was used to measure the forelimb grip strength in mice.[54] The mouse was given a chance to grab the gauge with its forelimbs before having its tail gently pulled back. Digital transducers were used to record the muscular force. Five trials were conducted on each mouse.[23]

[3] = MTT cell toxicity assay in HepG2 cells; type: cell-based; conditions: human, all doses (25 to 100 μM)
Protocol: HEK293T, HepG2, and N2A cells were used in the study representing kidney, liver and neuronal cell lines respectively. The cells were cultured in DMEM supplemented with 10% fetal bovine serum and antibiotics at 37°C under 5% CO2. The cells were tested negative for mycoplasma.
To evaluate the compound toxicity for the Cdk5 inhibitors, an MTT assay was performed in HEK293T, HepG2, and N2A cells at varying concentrations. Six hours after cell seeding, the compounds were added in different amounts, and the cells were harvested after 24 h for further analysis. N2A cells were transfected using Lipofectamine-3000 reagent, co-transfecting with plasmids encoding Cdk5/p35 and Cdk5/p25 for 12 h, followed by inhibitor treatment to assess their effects in the cell culture system. The concentrations of each plasmids used was 1 μg, total of 3 μg per well for 6 well plates.

[4] = PAMPA blood-brain barrier permeability assay (brain polar lipid extract); type: in vitro ADME; conditions: 7 h incubation, 100-500 uM, > 10*10^-6 cm/s = high permeability, read-out: Paap (PAMPA-BBB permeability)
Protocol: PAMPA assay was performed using a PAMPA filter plate (MAIPNTR10) coated with brain polar lipid extract (141101P) to evaluate blood-brain barrier (BBB) permeability of the compounds. The assay was performed with the help of the protocol provided by Merck Millipore on their official website and articles as cited.[62]^,[63] 5% of brain polar solution was used to coat the donor plate (15ul per well) by drying the plate in a fume hood. The acceptor plate was filled with 300ul of buffer (5% DMSO in PBS). The donor plate coated with brain polar solution was placed above the acceptor plate and different concentrations of Cdk5 inhibitor (100-500uM) dissolved in 5% DMSO were added to it (150ul per well). After 7 h of incubation, the absorbance was measured at broad spectrum 250–500 nm. […] For permeability, the Papp of the drugs was calculated.Paap = C ∗ -ln (1-[drugacceptor]/[Drugequilibrium]); C=VD∗VA/(VD + VA) ∗ area ∗ timePaap < 10∗10^−6 cm/s - Low permeability; Paap > 10∗10^−6 cm/s - high permeability

HFD-fed mice [5] = assay: Insulin tolerance test (ITT) in HFD mice; type: in vivo; conditions: i.p., both dosages 20 and 40 mg/kg/day, 20 days
Protocol: For the glucose tolerance test, 2 g/kg of glucose was utilized, and 0.75U/kg of human insulin was employed The glucose tolerance test (GTT) and insulin tolerance test (ITT) were performed in HFD mice models after 20 weeks of HFD feeding followed by 20 days of drug administration.[48] For GTT the mice were kept in a fasting period for overnight before glucose injections of 2 g/kg intraperitoneally. For ITT the mice were kept in a fasting for 6 h prior to insulin injection of 0.75 U/kg intraperitoneally. A one-touch glucometer was used to assess the blood sugar levels at various intervals (0, 60, and 120 min) following intraperitoneal infusion of both glucose and insulin.[23]^,[49]^,[50]^,[51] After 20 weeks of a HFD and 20 days of drug administration, the tests were carried out.

| Compound | Hippocampal expression levels of CDK5 ([1]; 20 days) | neurofilament light chain (NF-L) levels in hippocampus ([1]; 20 days) | p25 generation in hippocampus ([1]; 20 days) | phospho-tau-396Ser levels in hippocampus ([1]; 20 days) | phospho-NF-H levels in hippocampus ([1]; particularly at a higher dose) | Inhibition of Cdk2 (with cyclin A2) (Cdk2/CylA2) | CDK5 activity in hippocampal lysate (CDK5) | IC50 (Cdk1/CylY) | Inhibition of Cdk9 (with cyclin T) (Cdk9/CylT) | Grip strength (HFD-fed mice [2]) | viability at 24 h [3] | Papp at 7 h [4] | Insulin tolerance test (ITT) (HFD-fed mice [5]) |
| --- | --- | --- | --- | --- | --- | --- | --- | --- | --- | --- | --- | --- | --- |
| O=C(COc1ccccc1C(=O)Nc1cccc(Cl)c1Cl)Nc1ccc(N2CCOCC2)c(Cl)c1 [BLINK11, 2-(2-((3-chloro-4-morpholinophenyl)amino)-2-oxoethoxy)-N-(2,3-dichlorophenyl)benzamide] | remain unaltered | restored | remains unchanged | significantly decreased | significantly reduced | minimal inhibition | significant reduction in CDK5 activity | 39.3 nM | minimal inhibition | rescue behavior | > 50% | > 10 ×10⁻⁶ cm/s | significant rescue |
| COc1ccc(C(=O)C[C@@]2(O)C(=O)N(Cc3ccccc3)c3ccc(Br)cc32)cc1[N+](=O)[O-] [BLINK15] | remain unaltered |  | remains unchanged |  |  | minimal inhibition | significant reduction in CDK5 activity | 35.8 nM | minimal inhibition | rescue behavior | > 50% | > 10 ×10⁻⁶ cm/s | significant rescue |
